Columns and labels:
[1] = biological target: T1, Nuclear receptor ROR-gamma (Mus musculus, UniProt P51450); assay: Inhibition of mouse RORgamma ligand binding domain (Isoleucine 251 to Lysine 516) expressed in CHOK1 cells incubated for 2 days by Gal4 luciferase reporter gene assay; type: cell-based, CHO-K1
T1 sequence (P51450 whole entry): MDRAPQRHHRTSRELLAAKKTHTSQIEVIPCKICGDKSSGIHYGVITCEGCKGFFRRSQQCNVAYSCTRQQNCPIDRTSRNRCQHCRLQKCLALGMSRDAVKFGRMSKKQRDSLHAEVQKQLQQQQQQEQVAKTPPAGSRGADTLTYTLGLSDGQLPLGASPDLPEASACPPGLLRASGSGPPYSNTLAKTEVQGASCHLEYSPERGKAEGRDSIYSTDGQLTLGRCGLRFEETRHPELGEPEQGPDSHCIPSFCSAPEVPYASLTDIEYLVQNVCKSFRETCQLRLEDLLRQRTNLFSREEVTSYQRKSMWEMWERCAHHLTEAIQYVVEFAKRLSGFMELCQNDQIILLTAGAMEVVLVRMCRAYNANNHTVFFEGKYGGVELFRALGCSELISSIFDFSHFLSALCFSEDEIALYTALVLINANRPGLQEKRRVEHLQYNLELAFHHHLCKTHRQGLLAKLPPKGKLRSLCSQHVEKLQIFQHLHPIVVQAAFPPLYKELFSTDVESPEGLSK

[2] = biological target: T2, Nuclear receptor ROR-gamma (Homo sapiens, UniProt P51449)
T2 sequence (P51449 whole entry): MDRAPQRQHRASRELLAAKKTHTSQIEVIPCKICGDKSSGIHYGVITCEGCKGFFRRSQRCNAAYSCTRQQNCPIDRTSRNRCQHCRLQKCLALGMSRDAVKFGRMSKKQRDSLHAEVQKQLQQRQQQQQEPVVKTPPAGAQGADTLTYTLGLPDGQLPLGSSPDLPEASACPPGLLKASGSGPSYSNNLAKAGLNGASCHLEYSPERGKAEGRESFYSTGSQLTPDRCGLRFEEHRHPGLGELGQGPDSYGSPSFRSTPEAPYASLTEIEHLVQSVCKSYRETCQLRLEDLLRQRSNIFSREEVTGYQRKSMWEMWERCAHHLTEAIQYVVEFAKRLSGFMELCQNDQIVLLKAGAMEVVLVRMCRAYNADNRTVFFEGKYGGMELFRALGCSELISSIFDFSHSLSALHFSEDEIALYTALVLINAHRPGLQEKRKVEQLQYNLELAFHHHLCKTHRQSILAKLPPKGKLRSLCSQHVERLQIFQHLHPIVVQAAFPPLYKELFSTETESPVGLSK
Description: Inhibition of human RORgamma ligand binding domain (Serine 253 to Lysine 518 residues) expressed in CHOK1 cells incubated for 2 days by Gal4 luciferase reporter gene assay

[3] = Metabolic stability in liver S9 fraction (unknown origin) assessed as parent compound remaining incubated for 10 mins; type: ADME, subcellular; conditions: human, read-out: Stability
[4] = Metabolic stability in liver S9 fraction (unknown origin) assessed as parent compound remaining incubated for 60 mins; type: ADME, subcellular; conditions: human, read-out: Stability
[5] = biological target: Cytochrome P450 3A4 (Homo sapiens, UniProt P08684); assay: Inhibition of CYP3A4 in human liver microsomes using midazolam as substrate preincubated with substrate for 5 mins followed by NADPH addition measured after 20 mins by HPLC analysis; type: ADME
[6] = biological target: Cytochrome P450 2C9 (Homo sapiens, UniProt P11712); assay: Inhibition of CYP2C9 in human liver microsomes using diclofenac as substrate preincubated with substrate for 5 mins followed by NADPH addition measured after 20 mins by HPLC analysis; type: ADME
[7] = biological target: Cytochrome P450 2D6 (Homo sapiens, UniProt P10635); assay: Inhibition of CYP2D6 in human liver microsomes using bufuralol as substrate preincubated with substrate for 5 mins followed by NADPH addition measured after 20 mins by HPLC analysis; type: ADME
[8] = biological target: Cytochrome P450 1A2 (Homo sapiens, UniProt P05177); assay: Inhibition of CYP1A2 in human liver microsomes using ethoxyresorufin as substrate preincubated with substrate for 5 mins followed by NADPH addition measured after 20 mins by HPLC analysis; type: ADME
[9] = biological target: Cytochrome P450 2A6 (Homo sapiens, UniProt P11509); assay: Inhibition of CYP2A6 in human liver microsomes using coumarin as substrate preincubated with substrate for 5 mins followed by NADPH addition measured after 20 mins by HPLC analysis; type: ADME
[10] = biological target: Cytochrome P450 2C19 (Homo sapiens, UniProt P33261); assay: Inhibition of CYP2C19 in human liver microsomes using S-mephenytoin as substrate preincubated with substrate for 5 mins followed by NADPH addition measured after 20 mins by HPLC analysis; type: ADME
[11] = biological target: Nuclear receptor ROR-alpha (Homo sapiens, UniProt P35398); assay: Inhibition of human RORalpha
[12] = biological target: Steroidogenic factor 1 (Homo sapiens, UniProt Q13285); assay: Inhibition of human SF-1 receptor
[13] = biological target: Nuclear receptor ROR-beta (Homo sapiens, UniProt Q92753); assay: Inhibition of human RORbeta
[14] = biological target: Glucocorticoid receptor (Mus musculus, UniProt P06537); assay: Inhibition of mouse GR
[15] = biological target: Retinoic acid receptor RXR-alpha (Homo sapiens, UniProt P19793); assay: Inhibition of human RXRalpha
[16] = biological target: Vitamin D3 receptor (Homo sapiens, UniProt P11473); assay: Inhibition of human VDR
[17] = biological target: Bile acid receptor (Homo sapiens, UniProt Q96RI1); assay: Inhibition of human FXR
[18] = biological target: Oxysterols receptor LXR-alpha (Mus musculus, UniProt Q9Z0Y9); assay: Inhibition of mouse LXRalpha
[19] = biological target: Peroxisome proliferator-activated receptor alpha (Homo sapiens, UniProt Q07869); assay: Inhibition of human PPARalpha
[20] = biological target: Peroxisome proliferator-activated receptor gamma (Homo sapiens, UniProt P37231); assay: Inhibition of human PPARgamma
[21] = biological target: Peroxisome proliferator-activated receptor delta (Homo sapiens, UniProt Q03181); assay: Inhibition of human PPARdelta
[22] = biological target: Progesterone receptor (Homo sapiens, UniProt P06401); assay: Inhibition of human PR
[23] = biological target: Retinoic acid receptor alpha (Homo sapiens, UniProt P10276); assay: Inhibition of human RARalpha
[24] = biological target: Retinoic acid receptor beta (Homo sapiens, UniProt P10826); assay: Inhibition of human RARbeta
[25] = test system: Mus musculus; assay: Inhibition of MOG/PTX/CD3 antibody-induced IL-17 production in po dosed C57BL/6 mouse plasma adminstered 3 to 8 hrs before CD3 antibody injection by ELISA; type: functional, organism-based
[26] = Metabolic stability in human liver microsomes assessed as parent compound remaining incubated for 10 mins; type: ADME; conditions: read-out: Stability

Cytochrome P450 3A4, sequence (P08684 whole entry): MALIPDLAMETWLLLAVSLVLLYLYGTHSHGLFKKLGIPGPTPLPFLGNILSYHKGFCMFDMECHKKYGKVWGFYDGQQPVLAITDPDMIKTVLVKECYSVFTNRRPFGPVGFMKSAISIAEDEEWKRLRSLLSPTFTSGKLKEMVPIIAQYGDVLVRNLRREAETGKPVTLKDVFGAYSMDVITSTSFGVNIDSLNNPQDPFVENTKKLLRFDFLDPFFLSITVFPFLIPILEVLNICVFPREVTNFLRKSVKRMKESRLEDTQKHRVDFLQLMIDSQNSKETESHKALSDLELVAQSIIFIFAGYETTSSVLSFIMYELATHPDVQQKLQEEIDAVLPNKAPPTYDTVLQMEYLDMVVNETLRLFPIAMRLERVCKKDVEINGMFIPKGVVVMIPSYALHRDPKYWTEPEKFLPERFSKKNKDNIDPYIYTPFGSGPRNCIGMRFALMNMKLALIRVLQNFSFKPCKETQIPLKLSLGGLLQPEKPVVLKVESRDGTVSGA
Steroidogenic factor 1, sequence (Q13285 whole entry): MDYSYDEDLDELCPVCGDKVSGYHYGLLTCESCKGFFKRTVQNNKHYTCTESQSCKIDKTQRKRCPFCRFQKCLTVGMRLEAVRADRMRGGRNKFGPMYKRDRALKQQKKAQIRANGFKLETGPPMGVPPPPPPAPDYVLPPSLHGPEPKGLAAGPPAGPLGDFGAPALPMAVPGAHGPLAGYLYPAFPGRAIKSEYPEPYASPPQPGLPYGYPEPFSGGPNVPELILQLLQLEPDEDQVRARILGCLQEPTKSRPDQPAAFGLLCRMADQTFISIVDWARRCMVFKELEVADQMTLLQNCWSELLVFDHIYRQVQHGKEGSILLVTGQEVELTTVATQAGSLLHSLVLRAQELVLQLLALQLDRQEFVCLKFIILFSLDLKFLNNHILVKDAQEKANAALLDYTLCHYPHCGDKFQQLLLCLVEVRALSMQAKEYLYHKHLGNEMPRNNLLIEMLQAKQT
Cytochrome P450 2D6, sequence (P10635 whole entry): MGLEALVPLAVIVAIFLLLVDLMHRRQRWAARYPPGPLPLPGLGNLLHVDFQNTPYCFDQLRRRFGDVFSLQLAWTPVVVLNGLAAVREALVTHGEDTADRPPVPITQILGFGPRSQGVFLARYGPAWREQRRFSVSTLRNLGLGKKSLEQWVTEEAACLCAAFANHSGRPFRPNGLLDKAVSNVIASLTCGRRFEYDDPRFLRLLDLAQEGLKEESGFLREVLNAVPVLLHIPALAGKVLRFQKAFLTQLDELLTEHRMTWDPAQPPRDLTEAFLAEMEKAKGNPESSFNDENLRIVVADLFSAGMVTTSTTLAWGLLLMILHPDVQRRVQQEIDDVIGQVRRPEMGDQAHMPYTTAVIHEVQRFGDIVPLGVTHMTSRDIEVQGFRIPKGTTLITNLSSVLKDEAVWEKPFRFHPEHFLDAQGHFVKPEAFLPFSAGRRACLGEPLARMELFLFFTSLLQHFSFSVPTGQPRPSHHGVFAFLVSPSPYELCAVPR
Nuclear receptor ROR-beta, sequence (Q92753 whole entry): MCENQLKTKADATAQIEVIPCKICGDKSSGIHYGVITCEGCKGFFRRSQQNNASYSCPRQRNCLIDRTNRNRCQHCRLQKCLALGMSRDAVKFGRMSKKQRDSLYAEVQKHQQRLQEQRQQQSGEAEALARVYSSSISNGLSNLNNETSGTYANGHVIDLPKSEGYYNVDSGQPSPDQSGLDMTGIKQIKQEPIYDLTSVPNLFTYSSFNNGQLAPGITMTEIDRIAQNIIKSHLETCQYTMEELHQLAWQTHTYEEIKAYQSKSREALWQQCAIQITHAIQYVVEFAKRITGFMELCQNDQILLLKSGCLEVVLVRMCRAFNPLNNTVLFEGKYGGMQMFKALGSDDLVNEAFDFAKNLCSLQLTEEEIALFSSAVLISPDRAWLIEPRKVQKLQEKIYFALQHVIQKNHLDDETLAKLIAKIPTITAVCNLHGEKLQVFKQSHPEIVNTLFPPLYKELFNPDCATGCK
Oxysterols receptor LXR-alpha, sequence (Q9Z0Y9 whole entry): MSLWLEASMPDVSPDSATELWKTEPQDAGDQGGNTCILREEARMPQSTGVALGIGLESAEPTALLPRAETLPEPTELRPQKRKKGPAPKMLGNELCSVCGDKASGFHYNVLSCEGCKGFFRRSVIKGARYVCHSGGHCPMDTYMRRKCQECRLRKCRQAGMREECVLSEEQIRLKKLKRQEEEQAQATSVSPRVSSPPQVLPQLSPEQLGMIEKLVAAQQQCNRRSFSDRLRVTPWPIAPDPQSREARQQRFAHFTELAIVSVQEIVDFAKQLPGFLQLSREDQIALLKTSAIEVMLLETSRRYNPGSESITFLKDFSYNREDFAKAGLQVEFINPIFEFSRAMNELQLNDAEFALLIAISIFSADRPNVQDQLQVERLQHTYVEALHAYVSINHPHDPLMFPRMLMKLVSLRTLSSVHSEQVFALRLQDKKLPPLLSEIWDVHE
Progesterone receptor, sequence (P06401 whole entry): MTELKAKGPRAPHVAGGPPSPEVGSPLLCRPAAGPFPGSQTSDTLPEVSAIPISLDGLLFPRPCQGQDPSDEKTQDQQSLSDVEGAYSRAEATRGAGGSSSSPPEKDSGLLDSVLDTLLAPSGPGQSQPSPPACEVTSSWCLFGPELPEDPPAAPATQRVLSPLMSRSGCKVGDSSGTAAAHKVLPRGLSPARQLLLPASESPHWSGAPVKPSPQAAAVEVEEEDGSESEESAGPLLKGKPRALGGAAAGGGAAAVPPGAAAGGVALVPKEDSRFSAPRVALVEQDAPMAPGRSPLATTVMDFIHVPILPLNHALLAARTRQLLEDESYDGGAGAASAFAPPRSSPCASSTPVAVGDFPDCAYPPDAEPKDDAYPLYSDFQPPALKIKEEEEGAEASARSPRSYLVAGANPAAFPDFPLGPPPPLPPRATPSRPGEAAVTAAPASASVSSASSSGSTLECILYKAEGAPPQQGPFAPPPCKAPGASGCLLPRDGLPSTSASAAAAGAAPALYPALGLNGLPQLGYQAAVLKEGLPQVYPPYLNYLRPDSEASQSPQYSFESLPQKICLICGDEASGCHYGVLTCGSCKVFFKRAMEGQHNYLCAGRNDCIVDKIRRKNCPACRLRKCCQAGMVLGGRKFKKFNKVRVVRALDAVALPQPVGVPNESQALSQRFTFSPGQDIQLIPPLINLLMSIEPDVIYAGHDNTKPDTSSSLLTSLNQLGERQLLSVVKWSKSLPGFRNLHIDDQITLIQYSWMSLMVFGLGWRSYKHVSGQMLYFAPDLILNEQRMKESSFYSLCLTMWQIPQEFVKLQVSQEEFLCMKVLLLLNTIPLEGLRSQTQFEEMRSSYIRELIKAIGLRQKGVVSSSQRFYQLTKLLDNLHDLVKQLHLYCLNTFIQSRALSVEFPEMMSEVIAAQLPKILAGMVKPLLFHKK
Cytochrome P450 2A6, sequence (P11509 whole entry): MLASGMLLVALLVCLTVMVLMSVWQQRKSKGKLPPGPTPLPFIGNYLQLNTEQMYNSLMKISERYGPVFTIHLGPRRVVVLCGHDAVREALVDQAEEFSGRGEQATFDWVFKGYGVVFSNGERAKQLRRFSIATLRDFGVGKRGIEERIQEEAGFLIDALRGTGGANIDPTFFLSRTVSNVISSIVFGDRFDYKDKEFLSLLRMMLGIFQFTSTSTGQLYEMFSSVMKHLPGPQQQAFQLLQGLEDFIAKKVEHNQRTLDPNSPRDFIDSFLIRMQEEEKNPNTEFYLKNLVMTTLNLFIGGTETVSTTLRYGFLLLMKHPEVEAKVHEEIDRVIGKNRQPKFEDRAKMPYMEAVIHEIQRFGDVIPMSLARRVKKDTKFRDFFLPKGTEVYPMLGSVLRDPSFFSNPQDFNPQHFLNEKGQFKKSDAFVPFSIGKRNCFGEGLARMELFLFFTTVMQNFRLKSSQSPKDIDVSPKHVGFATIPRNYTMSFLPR
Peroxisome proliferator-activated receptor gamma, sequence (P37231 whole entry): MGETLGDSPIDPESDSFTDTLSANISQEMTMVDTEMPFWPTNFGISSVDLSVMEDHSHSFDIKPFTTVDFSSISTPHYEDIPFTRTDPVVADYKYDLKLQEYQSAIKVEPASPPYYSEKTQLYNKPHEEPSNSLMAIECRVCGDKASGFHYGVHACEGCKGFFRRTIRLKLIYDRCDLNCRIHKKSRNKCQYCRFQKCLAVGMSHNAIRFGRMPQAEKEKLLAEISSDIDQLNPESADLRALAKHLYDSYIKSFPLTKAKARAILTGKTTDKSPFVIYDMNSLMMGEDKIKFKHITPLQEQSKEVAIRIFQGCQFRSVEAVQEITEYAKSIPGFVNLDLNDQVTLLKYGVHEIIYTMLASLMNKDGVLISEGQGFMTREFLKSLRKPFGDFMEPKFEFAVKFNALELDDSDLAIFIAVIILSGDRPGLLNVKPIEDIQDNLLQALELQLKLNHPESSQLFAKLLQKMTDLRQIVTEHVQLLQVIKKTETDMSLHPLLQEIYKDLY
Retinoic acid receptor alpha, sequence (P10276 whole entry): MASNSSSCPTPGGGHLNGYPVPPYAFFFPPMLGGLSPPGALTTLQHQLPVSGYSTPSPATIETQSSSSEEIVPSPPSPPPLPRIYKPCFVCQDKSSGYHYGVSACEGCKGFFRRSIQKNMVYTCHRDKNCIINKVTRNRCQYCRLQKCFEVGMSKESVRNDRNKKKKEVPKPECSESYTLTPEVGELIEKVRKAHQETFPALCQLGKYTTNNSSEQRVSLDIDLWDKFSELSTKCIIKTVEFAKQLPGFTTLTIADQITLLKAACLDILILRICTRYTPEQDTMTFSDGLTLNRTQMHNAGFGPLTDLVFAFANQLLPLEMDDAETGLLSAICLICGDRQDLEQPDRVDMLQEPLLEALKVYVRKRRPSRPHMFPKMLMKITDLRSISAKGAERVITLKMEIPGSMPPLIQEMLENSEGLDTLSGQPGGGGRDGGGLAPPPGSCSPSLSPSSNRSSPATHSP

CCn1c(CCC(=O)Nc2cccc3ccccc23)nnc1CC1CCCCC1
EC50 [1]: 2600 nM
EC50 [2]: 14000 nM

Cc1ccc(NC(=O)CCc2nnc(-c3ccc(CC(C)C)cc3)n2C2CC2)c(C)c1
EC50 [1]: 120 nM
remaining at 10 min [3]: 84%
remaining at 1 h [4]: 55%
EC50 [2]: 1800 nM

CC(=O)N1C[C@H](C(=O)Nc2ccc(C)cc2C)[C@@H](c2nnc([C@H]3C[C@@H](CC(C)C)C3)n2C2CC2)C1
remaining at 10 min [3]: 86%
remaining at 1 h [4]: 61%
IC50 [5]: > 50000 nM
inhibition (INH) ([5]; human, microsomes, 20 min, TDE = time-dependent effect): tde
IC50 [6]: > 50000 nM
IC50 [7]: > 50000 nM
IC50 [8]: > 50000 nM
IC50 [9]: > 50000 nM
IC50 [10]: > 50000 nM
EC50 [11]: > 20000 nM
EC50 [12]: > 20000 nM
EC50 [13]: > 20000 nM
EC50 [14]: > 20000 nM
EC50 [15]: > 20000 nM
EC50 [16]: > 20000 nM
EC50 [17]: > 20000 nM
EC50 [18]: > 20000 nM
EC50 [19]: > 20000 nM
EC50 [20]: > 20000 nM
EC50 [21]: > 20000 nM
EC50 [22]: > 20000 nM
EC50 [23]: > 20000 nM
EC50 [24]: > 20000 nM
inhibition [25]: Dose-dependent effect

Cc1ccc(NC(=O)[C@H]2CN(C)CC[C@@H]2c2nnc([C@H]3C[C@@H](CC(C)C)C3)n2C2CC2)c(C)c1 (racemic)
EC50 [1]: 290 nM
remaining at 10 min [3]: 53%
remaining at 1 h [4]: 21%
EC50 [2]: 230 nM

Cc1ccc(NC(=O)CCc2nnc(-c3cc(CC(C)C)on3)n2C2CC2)c(C)c1
EC50 [1]: 54 nM
remaining at 10 min [3]: 83%
remaining at 1 h [4]: 31%
EC50 [2]: 450 nM

Cc1ccc(NC(=O)CCc2nnc(CCCC(C)(C)C)n2C2CC2)c(C)c1
EC50 [1]: 1300 nM
remaining at 10 min [3]: 71%
remaining at 1 h [4]: 51%
EC50 [2]: 2800 nM

CCn1c(CCC(=O)Nc2cccc3ccccc23)nnc1CCC1CCCCC1
EC50 [1]: 300 nM
EC50 [2]: 820 nM

Cc1ccc(NC(=O)CCc2nnc([C@H]3C[C@@H](CC(C)C)C3)n2C2CC2)c(C)c1
EC50 [1]: 35 nM
remaining at 10 min [3]: 70%
remaining at 1 h [4]: 39%
IC50 [5]: 5000 nM
EC50 [2]: 140 nM

Cc1ccc(NC(=O)CCc2nnc(CCC3CCCCC3)n2C2CCC2)c(C)c1
EC50 [1]: 1800 nM
remaining at 10 min [3]: 49%
remaining at 1 h [4]: 27%
EC50 [2]: 9500 nM

CCn1c(CC(C)C(=O)Nc2cccc3ccccc23)nnc1C1Cc2ccccc2C1 (racemic)
EC50 [1]: 670 nM
EC50 [2]: 1300 nM

Cc1ccc(NC(=O)[C@H]2C[C@@H](O)C[C@@H]2c2nnc([C@H]3C[C@@H](CC(C)C)C3)n2C2CC2)c(C)c1
EC50 [1]: 38 nM
remaining at 10 min [3]: 87%
remaining at 1 h [4]: 76%
IC50 [5]: 3000 nM
EC50 [2]: 98 nM

CCn1c(CCC(=O)Nc2cccc3ccccc23)nnc1C1CCCCC1
EC50 [1]: 4500 nM
EC50 [2]: > 20000 nM

CCn1c(CCC(=O)Nc2cccc3ccccc23)nnc1C1Cc2ccccc2C1
EC50 [1]: 400 nM
EC50 [2]: 1000 nM

CCn1c(CCC(=O)Nc2cccc3ccccc23)nnc1CCc1ccccc1
EC50 [1]: 630 nM
EC50 [2]: 2500 nM

CCn1c(CCC(=O)Nc2cccc(Cl)c2C)nnc1CCC1CCCCC1
EC50 [1]: 640 nM
EC50 [2]: 960 nM

CCn1c(OCC(=O)Nc2cccc3ccccc23)nnc1C1Cc2ccccc2C1
EC50 [1]: > 20000 nM
EC50 [2]: > 20000 nM

Cc1ccc(NC(=O)CCc2nnc(CCCC(C)C)n2C2CC2)c(C)c1
EC50 [1]: 610 nM
remaining at 10 min [3]: 67%
remaining at 1 h [4]: 27%
EC50 [2]: 1700 nM

CCn1c(C(O)CC(=O)Nc2cccc3ccccc23)nnc1C1Cc2ccccc2C1 (racemic)
EC50 [1]: > 20000 nM
EC50 [2]: > 20000 nM

Cc1ccc(NC(=O)CCc2nnc(CCC3CCCCC3)n2C2CC2(F)F)c(C)c1 (stereo not given)
EC50 [1]: 500 nM
remaining at 10 min [3]: 75%
remaining at 1 h [4]: 59%
EC50 [2]: 920 nM

CCn1c(CCC(=O)Nc2cccc3ccccc23)nnc1CCC(C)C
EC50 [1]: 1400 nM
EC50 [2]: 13000 nM

CCn1c(CCC(=O)Nc2cc(C)cc(C)c2)nnc1CCC1CCCCC1
EC50 [1]: 3100 nM
EC50 [2]: 2900 nM

CCC(C)CCc1nnc(CCC(=O)Nc2ccc(C)cc2C)n1C1CC1 (racemic)
EC50 [1]: 1400 nM
remaining at 10 min [3]: 63%
remaining at 1 h [4]: 27%
EC50 [2]: 3900 nM

Cc1ccc(NC(=O)CCc2nnc(CCC3CCCCC3)n2C2CC2)c(C)c1
EC50 [1]: 450 nM
remaining at 10 min [3]: 55%
remaining at 1 h [4]: 23%
EC50 [2]: 980 nM

CCn1c(CCC(=O)Nc2cccc3ccccc23)nnc1CCC(C)(C)C
EC50 [1]: 830 nM
EC50 [2]: 6700 nM

CCn1c(CCC(=O)Nc2ccc(C)cc2C)nnc1CCC1CCCCC1
EC50 [1]: 600 nM
remaining at 10 min [3]: 36%
remaining at 1 h [4]: 0%
remaining at 10 min [26]: 36%
EC50 [2]: 900 nM

Cc1ccc(NC(=O)CCc2nnc([C@H]3C[C@H](CC(C)C)C3)n2C2CC2)c(C)c1
EC50 [1]: 53 nM
remaining at 10 min [3]: 68%
remaining at 1 h [4]: 31%
EC50 [2]: 400 nM

CCn1c(C(C)CC(=O)Nc2cccc3ccccc23)nnc1C1Cc2ccccc2C1 (racemic)
EC50 [1]: 1100 nM
EC50 [2]: 1700 nM

From ChEMBL document CHEMBL3774309, “SAR Exploration Guided by LE and Fsp(3): Discovery of a Selective and Orally Efficacious RORγ Inhibitor” (ACS Med Chem Lett, 2016)
